Test results published in PMC9562916, “Investigation of the Phenolic Component Bioavailability Using the In Vitro Digestion/Caco-2 Cell Model, as well as the Antioxidant Activity in Chinese Red Wine” (Foods, 2022).
Marks after values point to notes of the source that are not given here.

System: not listed separately
Assay: PC content of red wine before and after in vitro simulated gastrointestinal digestion (HPLC)
Assay type: in vitro ADME
Conditions: Cabernet red wine, after simulated gastrointestinal digestion
Description: The digestion procedure was carried out by adapting the method of Brodkorb et al. and Gómez et al.. […] One milliliter (50 units/mL) of porcine amylase was prepared in a 15 mM Na₃PO₄ buffer solution (pH adjusted to 6.8) containing 1.5 mM CaCl2, and it was added to the red wine solution. After 5 min, 4.5 mL of 0.12 M HCl was added to the mixture to adjust the pH to 2.4. One milliliter of porcine pepsin (0.02 mg/L) was dissolved in a 20 mM HCl solution. The mixture was then maintained at 37 °C for 120 min. The digestion mixture was then centrifuged at 8000× g for 15 min to obtain samples from the gastric digestion phase. […] The mixture was incubated at pH 6.5 at 37 °C for 3 h before being centrifuged. The extracts of the intestinal phase were the supernatants. The same operation was done three times, and each sample was stored in a refrigerator (−20 °C) immediately for further analysis.
The Pati method was adopted, with slight modifications, to measure the content of the PCs. The Agilent 1100 series HPLC instrument was used; it was equipped with a degasser, quaternary pump solvent delivery, a DAD system, and a single quadrupole mass detector coupled with an electrospray ionization LC–MS interface. Briefly, th samples were injected into a Zorbax SB C18 reversed-phase column (5 µm,150 × 2.1 mm, Agilent Technologies, Santa Clara, CA, USA) using an autosampler after filtering through 0.45 µm cellulose acetate syringe filters. The column temperature was kept at 30 °C, the injection volume was 10 µL, and the flow rate was 0.3 mL/min. The eluents were water and formic acid in a 99:1 (v/v) (A) ratio and 100% acetonitrile (B). […] The MS configuration was as follows: ESI, negative ion mode, nebulizer pressure of 30 psi, a dry gas flow rate of 10 mL/min, dry gas temperature of 350 °C, and a scan rate of 100~1200 m/z. PCs were determined according to their retention times, UV/VIS spectra, and high-resolution MS spectra, in addition to a comparison with the standards. […] Putative annotations were made using spectral features and literature information on the chromatographic properties and mass spectra records from the metabolome database. A standard curve was drawn using methanol solutions with different concentrations as the standards. The limits of detection and quantitation were calculated according to the signal-to-noise ratio (limit of detection: signal-to-noise ratio ≥ 3; limit of quantitation: signal-to-noise ratio ≥ 10). […] PCs All of the samples were determined in triplicate.

Row | Structure (SMILES) | PC Contents, Cabernet, After Digestion
1 | CC(=O)OCC1OC(Oc2cc3c(O)cc(O)cc3[o+]c2-c2cc(O)c(O)c(O)c2)C(O)C(O)C1O (stereo not drawn) [Delphinidin-3-acglc] | 0.29 ± 0.014 ^b mg/L
2 | COc1cc(-c2oc3cc(O)cc(O)c3c(=O)c2O[C@@H]2O[C@H](CO)[C@@H](O)[C@H](O)[C@H]2O)ccc1O [Isorhamnetin-3-glc] | 10.82 ± 0.32 ^b mg/L

Same assay, conditions: Helanshan red wine, after simulated gastrointestinal digestion

Row | Structure (SMILES) | PC Contents, Helanshan, After Digestion
3 | CC(=O)OCC1OC(Oc2cc3c(O)cc(O)cc3[o+]c2-c2cc(O)c(O)c(O)c2)C(O)C(O)C1O (stereo not drawn) [Delphinidin-3-acglc] | 0.14 ± 0.007 ^b mg/L
4 | COc1cc(-c2oc3cc(O)cc(O)c3c(=O)c2O[C@@H]2O[C@H](CO)[C@@H](O)[C@H](O)[C@H]2O)ccc1O [Isorhamnetin-3-glc] | 9.87 ± 0.47 ^b mg/L

Same assay, conditions: Tianzhu red wine, after simulated gastrointestinal digestion

Row | Structure (SMILES) | PC Contents, Tianzhu, After Digestion
5 | CC(=O)OCC1OC(Oc2cc3c(O)cc(O)cc3[o+]c2-c2cc(O)c(O)c(O)c2)C(O)C(O)C1O (stereo not drawn) [Delphinidin-3-acglc] | 0.22 ± 0.008 ^b mg/L
6 | COc1cc(-c2oc3cc(O)cc(O)c3c(=O)c2O[C@@H]2O[C@H](CO)[C@@H](O)[C@H](O)[C@H]2O)ccc1O [Isorhamnetin-3-glc] | 9.88 ± 0.35 ^b mg/L

System: Caco-2 cell monolayer
Assay: Caco-2 transepithelial transport assay of digested red wine
Assay type: in vitro ADME, human
Conditions: Cabernet red wine, digested sample, basolateral side of Caco-2 monolayer
Description: Caco-2 cells were inoculated following the method of Hubatsch et al. […] Briefly, a 5% v/v of CO2 incubator at 37 °C was used to house the cells. […] Caco-2 cells were sub-cultured when they reached 80-90% of the adherent growth by treating them with a 0.05% v/v of trypsin-EDTA solution. The culture between passages 35 and 40 was used for the following experiment. Transport experiments were performed according to the method of Wu et al. with slight modifications. First, 1.0 × 10^5 Caco-2 cells were inoculated onto 12 mm transparent cell culture plates (Transwell). Media were carefully injected into the apical (0.5 mL) and basolateral (1.5 mL) sides of the Transwell plates. The cell culture medium had to be replaced every other day until the cells formed a monolayer. The integrity and transport ability of the Caco-2 cell monolayer were evaluated by measuring the trans-epithelial electrical resistance (TEER) with a MilliCell voltammeter (Millicell ERS-2, Merck Millipore, Billerica, MA, USA). […] When the cell activity exceeded 0.9, a transport experiment was conducted. The apical side was injected with a digested red wine sample (0.5 mL) and was thoroughly mixed with […] Balanced Salt Solution (HBSS) buffer solution. […] The cells were then cultured in a 37 °C, 5% CO2 incubator. Then, 0.25 mL samples were separately taken from the basolateral side of the monolayer. An equal volume of HBSS buffer was then added every half hour from the beginning of the culture until the end of the culture at 6 h. The collected samples were subsequently filtered and placed in the sample bottle for further HPLC analysis. This experiment was repeated several times to collect enough samples for the next antioxidant test. […] The Agilent 1100 series HPLC instrument was used; it was equipped with a degasser, quaternary pump solvent delivery, a DAD system, and a single quadrupole mass detector coupled with an electrospray ionization LC-MS interface. […] The column temperature was kept at 30 °C, the injection volume was 10 μL, and the flow rate was 0.3 mL/min. The eluents were water and formic acid in a 99:1 (v/v) (A) ratio and 100% acetonitrile (B). The gradient elution procedure was as follows: (1) 3% B solvent at 0 min, (2) 3 to 16% B solvent at 10 min, (3) 16 to 20% B solvent at 30 min, and (4) 20% B solvent maintained until the procedure was completed. The MS configuration was as follows: ESI, negative ion mode, nebulizer pressure of 30 psi, a dry gas flow rate of 10 mL/min, dry gas temperature of 350 °C, and a scan rate of 100~1200 m/z. PCs were determined according to their retention times, UV/VIS spectra, and high-resolution MS spectra, in addition to a comparison with the standards. […] If a standard was unavailable, a structurally related compound was used. Putative annotations were made using spectral features and literature information on the chromatographic properties and mass spectra records from the metabolome database. A standard curve was drawn using methanol solutions with different concentrations as the standards. […] PCs All of the samples were determined in triplicate.

Row | Structure (SMILES) | PC Contents, Cabernet, Transmembrane
7 | CC(=O)OCC1OC(Oc2cc3c(O)cc(O)cc3[o+]c2-c2cc(O)c(O)c(O)c2)C(O)C(O)C1O (stereo not drawn) [Delphinidin-3-acglc] | 0.04 ± 0.002 ^a mg/L
8 | COc1cc(-c2oc3cc(O)cc(O)c3c(=O)c2O[C@@H]2O[C@H](CO)[C@@H](O)[C@H](O)[C@H]2O)ccc1O [Isorhamnetin-3-glc] | 0.74 ± 0.03 ^a mg/L

Same assay, conditions: Helanshan red wine, digested sample, basolateral side of Caco-2 monolayer

Row | Structure (SMILES) | PC Contents, Helanshan, Transmembrane
9 | CC(=O)OCC1OC(Oc2cc3c(O)cc(O)cc3[o+]c2-c2cc(O)c(O)c(O)c2)C(O)C(O)C1O (stereo not drawn) [Delphinidin-3-acglc] | 0.02 ± 0.001 ^a mg/L
10 | COc1cc(-c2oc3cc(O)cc(O)c3c(=O)c2O[C@@H]2O[C@H](CO)[C@@H](O)[C@H](O)[C@H]2O)ccc1O [Isorhamnetin-3-glc] | 0.69 ± 0.03 ^a mg/L

Same assay, conditions: Tianzhu red wine, digested sample, basolateral side of Caco-2 monolayer

Row | Structure (SMILES) | PC Contents, Tianzhu, Transmembrane
11 | CC(=O)OCC1OC(Oc2cc3c(O)cc(O)cc3[o+]c2-c2cc(O)c(O)c(O)c2)C(O)C(O)C1O (stereo not drawn) [Delphinidin-3-acglc] | 0.04 ± 0.002 ^a mg/L
12 | COc1cc(-c2oc3cc(O)cc(O)c3c(=O)c2O[C@@H]2O[C@H](CO)[C@@H](O)[C@H](O)[C@H]2O)ccc1O [Isorhamnetin-3-glc] | 1.97 ± 0.07 ^a mg/L

Same assay, conditions: apical to basolateral, digested Cabernet red wine

Row | Structure (SMILES) | Apparent Permeability Coefficients, Cabernet
13 | CC(=O)OCC1OC(Oc2cc3c(O)cc(O)cc3[o+]c2-c2cc(O)c(O)c(O)c2)C(O)C(O)C1O (stereo not drawn) [Delphinidin-3-acglc] | 8.57 ± 1.26 ^a ×10^−6 cm/s
14 | COc1cc(-c2oc3cc(O)cc(O)c3c(=O)c2O[C@@H]2O[C@H](CO)[C@@H](O)[C@H](O)[C@H]2O)ccc1O [Isorhamnetin-3-glc] | 4.29 ± 0.33 ^a ×10^−6 cm/s

Same assay, conditions: apical to basolateral, digested Helanshan red wine

Row | Structure (SMILES) | Apparent Permeability Coefficients, Helanshan
15 | CC(=O)OCC1OC(Oc2cc3c(O)cc(O)cc3[o+]c2-c2cc(O)c(O)c(O)c2)C(O)C(O)C1O (stereo not drawn) [Delphinidin-3-acglc] | 8.64 ± 1.38 ^a ×10^−6 cm/s
16 | COc1cc(-c2oc3cc(O)cc(O)c3c(=O)c2O[C@@H]2O[C@H](CO)[C@@H](O)[C@H](O)[C@H]2O)ccc1O [Isorhamnetin-3-glc] | 4.39 ± 0.31 ^a ×10^−6 cm/s

Same assay, conditions: apical to basolateral, digested Tianzhu red wine

Row | Structure (SMILES) | Apparent Permeability Coefficients, Tianzhu
17 | CC(=O)OCC1OC(Oc2cc3c(O)cc(O)cc3[o+]c2-c2cc(O)c(O)c(O)c2)C(O)C(O)C1O (stereo not drawn) [Delphinidin-3-acglc] | 8.78 ± 1.44 ^a ×10^−6 cm/s
18 | COc1cc(-c2oc3cc(O)cc(O)c3c(=O)c2O[C@@H]2O[C@H](CO)[C@@H](O)[C@H](O)[C@H]2O)ccc1O [Isorhamnetin-3-glc] | 4.35 ± 0.34 ^a ×10^−6 cm/s
